In one series the test system is isolated urethra. The series can be described thus: Urethra contracting action using isolated urethra (Example 3). The settings on record: isolated urethra of SD female rat, cumulative 10^-5 M to 10^-12 M, FIGS. 6 and 7. The procedure:
The urethra was isolated from an SD female rat having a body weight of 100 g to 500 g. The isolated urethra was incised vertically and then made into strip-shaped specimens having a width of about 3 mm. The specimens were suspended in a 10 mL tissue bus filled with a Krebs—Henseleit solution (pH 7.4) in the circular muscle direction. The Krebs—Henseleit solution was aerated at 95% O2 and 5% CO2, and warmed at 37° C. The resting tension was set to 0.5 g and the isometric contraction was recorded. After the resting tension was stabilized, a 10 μM phenylephrine solution was added thereto to cause contraction.

Series [1] relates to SD female rat. The series can be described thus: Effect on urethral pressure, microchip method (Example 4). The settings on record: intravenous, anesthetized SD female rat, FIGS. 8 and 9. The class given is in vivo. The text has this:
An SD female rat was anesthetized with urethane and allowed to undergo laparotomy, and then a catheter was mounted in the bladder dome for urine leakage in the bladder. Further, a catheter was mounted in the femoral vein for the administration of a compound and a catheter was mounted in the carotid artery for the measurement of blood pressure described in Example 6 as described later. […] The catheter mounted in the carotid artery was attached to a pressure transducer and the blood pressure was measured.

Series [2] concerns SD female rat. Kind of series: Effect on urethral pressure, perfusion method (Example 4). The class given is in vivo. The conditions noted are these: intravenous, anesthetized SD female rat, FIGS. 10 to 14. The procedure: An SD female rat was anesthetized with urethane and allowed to undergo laparotomy, the bladder dome was then incised, and a catheter having a barb at the tip was inserted toward the urethra from the bladder, and ligated and fixed such that the tip of the catheter was positioned around the proximal urethra. Physiological saline was injected at a predetermined flow rate into the urethra through the catheter and the urethral pressure was measured with a pressure transducer. After the urethral pressure was stabilized, compounds dissolved in physiological saline, or physiological saline containing 5% N,N-dimethylacetamide(DMA) and 0.5% Cremophor were intravenously administered at a dose of 1 μg/kg, 10 μg/kg, 100 μg/kg, or 1000 μg/kg and a change in the urethral pressure was measured.

The test system of the next series is isolated bladder. Kind of series: Isolated bladder contraction (Example 6). The settings on record: isolated bladder of SD female rat, cumulative addition. The text has this:
(§1) (1) The bladder and uterus were isolated from an SD female rat having a body weight of 100 g to 500 g. For the isolated bladder, the parts below the parietal region and the triangular portion were resected to make only the body portion into a ring state, and further, one side of the tissue in the ring state was cut to a band-shaped tissue. The bladder in the band shape was isolated parallel to the median axis of the bladder to prepare strip-shaped specimens having a length of about 10 mm and a width of about 3 mm. The specimens were suspended in a 10 mL tissue bus filled with a Krebs-Henseleit solution (pH 7.4) at a resting tension of 0.5 g and the isometric contraction was recorded. For the isolated uterus, the edge portion of the uterus was cut and incised vertically, whereby a strip-shaped specimen having a width of about 6 mm was then prepared. The specimens were suspended in a 10 mL tissue bus filled with a Krebs—Henseleit solution (pH 7.4) at a resting tension of 0.5 g and the isometric contraction was recorded. […] For the bladder specimen, after the resting tension was stabilized, a 60 mM KCl solution or a 10 μM carbachol solution was added thereto to cause contraction. The specimens were washed and stabilized, and then the compounds were cumulatively administered.

For the next series, the system named is isolated uterus. The series can be described thus: Isolated uterus contraction (Example 6). The settings on record: isolated uterus of SD female rat; for contraction action on the isolated uterus: cumulative 10^-5 M to 10^-11 M.
Text: as §1

For series [3], the system named is SD female rat. Kind of series: Effect on rat blood pressure (Example 6). The class given is in vivo. The conditions noted are these: intravenous, at a dose for increasing the urethral pressure, FIGS. 21 and 22. The text has this: An SD female rat was anesthetized with urethane and allowed to undergo laparotomy, and then a catheter was mounted in the bladder dome for urine leakage in the bladder. Further, a catheter was mounted in the femoral vein for the administration of a compound and a catheter was mounted in the carotid artery for the measurement of blood pressure described in Example 6 as described later. A microchip transducer catheter (Milar Instruments) was inserted toward the bladder from the external urethral meatus for the measurement of the urethral pressure, and fixed such that the transducer portion was positioned around the portion at which the urethral pressure was maximized (10.0 mm to 15.0 mm from the external urethral meatus). The catheter mounted in the carotid artery was attached to a pressure transducer and the blood pressure was measured.
(2) In the experiment for measuring the urethral pressure in Example 4, the blood pressure was measured simultaneously. After the urethral pressure and the blood pressure were stabilized, the compound was administered and a change in the blood pressure was measured.

The next series deals with T1, human MT1 receptor (Homo sapiens, UniProt P48039).
T1 construct: expressed in transfected cells; vector pCDNA3.1/Zeo; co-transfected with a Gq/i chimeric G protein expression vector
T1 sequence (P48039 whole entry): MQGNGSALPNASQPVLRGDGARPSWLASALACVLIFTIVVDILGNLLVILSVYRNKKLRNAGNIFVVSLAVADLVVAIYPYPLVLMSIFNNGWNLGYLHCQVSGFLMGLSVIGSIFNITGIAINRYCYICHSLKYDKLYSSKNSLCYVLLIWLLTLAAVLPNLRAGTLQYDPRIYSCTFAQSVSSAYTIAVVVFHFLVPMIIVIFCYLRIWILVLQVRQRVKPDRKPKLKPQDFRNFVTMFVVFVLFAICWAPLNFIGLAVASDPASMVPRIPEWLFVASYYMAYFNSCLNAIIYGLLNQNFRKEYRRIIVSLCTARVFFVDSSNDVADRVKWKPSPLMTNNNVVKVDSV
The series can be described thus: Intracellular Ca2+ concentration by FLIPR in human MT1 receptor expressing cells (Example 2). It is filed as cell-based. The settings on record: human MT1 receptor expressing HEK293 cells, 10^-5 M to 10^-12 M, FIGS. 2 and 4. The procedure:
(§2) The expression vectors for human MT1 and MT2 receptors were introduced into HEK293 cells, together with a Gq/i chimeric G protein expression vector, respectively. The incorporation was carried out in accordance with instructions, using a Lipofectoamine (registered trademark) 2000 Reagent (Invitrogen Inc.). Using Zeocin and hygromycin as a resistant agent, the cells were cultured for 15 days in the presence of 0.02 mg/mL and 0.05 mg/mL of the agents, respectively, thereby acquiring a drug-resistant clone.
(§3) The respective stably expressing cells were dispensed into 96 wells in a poly-D-lysine-coated plate (Falcon) the day before the experiment to give 40,000 cells/well, and cultured in a DMEM (Invitrogen Inc.) medium containing 10% FBS at 37° C. and 5% CO2 overnight. The medium was replaced with a loading buffer (a washing solution containing 4 μM Fluo-4AM (Dojindo Co.) (Hank's balanced salt solution (HBSS), 20 mM HEPES-NaOH, 2.5 mM probenecid)) and cultured at 37° C. and 5% CO2 for 1 hour.

The next series addresses T2, human MT2 receptor (Homo sapiens, UniProt P49286).
T2 construct: expressed in transfected cells; vector pCDNA3.1/Zeo; co-transfected with a Gq/i chimeric G protein expression vector
T2 sequence (P49286 1-362): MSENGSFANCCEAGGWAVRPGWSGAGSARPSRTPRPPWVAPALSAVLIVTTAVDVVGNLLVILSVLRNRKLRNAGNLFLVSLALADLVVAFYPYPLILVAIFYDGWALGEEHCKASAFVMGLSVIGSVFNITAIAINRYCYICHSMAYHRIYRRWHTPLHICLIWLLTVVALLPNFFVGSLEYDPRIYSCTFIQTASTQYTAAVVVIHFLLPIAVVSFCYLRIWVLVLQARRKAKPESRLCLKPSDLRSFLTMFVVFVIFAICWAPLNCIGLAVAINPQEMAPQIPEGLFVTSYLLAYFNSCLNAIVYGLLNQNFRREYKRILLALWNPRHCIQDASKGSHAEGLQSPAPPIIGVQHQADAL
The series can be described thus: Intracellular Ca2+ concentration by FLIPR in human MT2 receptor expressing cells (Example 2). It is filed as cell-based. The settings on record: human MT2 receptor expressing HEK293 cells, 10^-5 M to 10^-12 M, FIGS. 3 and 5. The procedure: as §2, §3

Turning to `COc1ccc2[nH]cc(CCNC(C)=O)c2c1` [melatonin], in the series with isolated urethra, the urethra contracting action entry was “contracted the isolated urethra”. In addition, the “urethral pressure increasing action” value in the series with SD female rat [1] and with SD female rat [2] was “increased the urethral pressure” in each case. For the same compound, in the series with isolated bladder, the “contraction action on the isolated bladder” value is “did not exhibit a contraction action”. Further, the “contraction action on the isolated uterus” value with isolated uterus is reported as “did not exhibit a contraction action”. Moreover, the “effect on blood pressure (mean blood pressure)” value in the series on SD female rat [3] is on record as “did not increase the blood pressure”.
Turning to `CCC(=O)NCC[C@@H]1CCc2ccc3c(c21)CCO3` [ramelteon, (S)-N-[2-(1,6,7,8-tetrahydro-2H-indeno[5,4-b]furan-8-yl)ethyl]propionamide], the “intracellular Ca^2+ concentration (melatonin receptor activating action)” value at human MT1 receptor and on human MT2 receptor was “increased” each time. In addition, in the series with isolated urethra, the urethra contracting action entry was “contracted the isolated urethra”. Moreover, the “urethral pressure increasing action” value in the series on SD female rat [1] and in the series with SD female rat [2] was “increased the urethral pressure” in each case. In addition, the “contraction action on the isolated bladder” value in the series with isolated bladder is “did not exhibit a contraction action”. For the same compound, the “effect on the rhythmic contraction of the isolated uterus” value in the series with isolated uterus (FIG. 20) was “did not have an effect”. Further, in the series on isolated uterus, the “contraction action on the isolated uterus” value is “did not exhibit a contraction action”. In addition, in the series on SD female rat [3], the “effect on blood pressure (mean blood pressure)” value is listed as “did not increase the blood pressure”.

The values are drawn from patent US20150368220A1, “PHARMACEUTICAL COMPOSITION FOR TREATING OR PREVENTING STRESS URINARY INCONTINENCE OR MIXED URINARY INCONTINENCE, AND METHOD FOR SCREENING COMPOUND COMPRISED IN SAID PHARMACEUTICAL COMPOSITION” (Astellas Pharma Inc., priority 2012, published 2015).
